Data reported in patent publication US9801958B2, “Polymer nanoparticle composite and composition for MRI imaging including same” (THE UNIVERSITY OF TOKYO, priority 2013, dated 2017).

Assays:
[1] = system: Colon26 liver metastatic tumor; conditions: property in clinical practice; cited from earlier work
[2] = mouse, in vivo
Description: Here, the maximum tolerant dose (MTD) of MnCaP for a mouse is about 1.5 mmol/kg. In this regard, the maximum tolerant dose (MTD) of MnCl2 is about 0.22 mmol/kg, which is about 1/7 the maximum tolerant dose (MTD) of MnCaP. Therefore, the polymer nanoparticle composite of the present invention that uses MnCaP is also extremely good for practical use in MRI contrast in terms of maximum tolerant dose (MTD).

[3] = Relaxivity measurement and T1-weighted imaging in solution, 1T MR; type: physicochemical; conditions: 0.1-0.5 mM, distilled water
Method: In order to measure the relaxivity of the produced MnCaP nanoparticle composite and compare the contrast effect with existing MnCl2 alone, a preclinical permanent magnet type 1T (Tesla) MR equipment (Icon™, Bruker-Biospin, Germany) was used to measure the relaxivity and acquire T1-weighted images for comparison. For the measurements, the MnCaP nanoparticle composite at a concentration of 0.1-0.5 mM and MnCl2 at the same concentration were used and measured in PCR sample tubes. Distilled water was used for dilution.
The relaxivity was measured using a proton volume coil (inner diameter 35 mm). As the contrast method, a rapid spin-echo technique adopting inversion pulse (Rapid Acquisition with Relaxation Enhancement, RARE) was employed. […]

In the case of CCOc1ccc(C[C@@H](CN(CCN(CC(=O)[O-])CC(=O)[O-])CC(=O)[O-])N(CC(=O)[O-])CC(=O)[O-])cc1.[Gd+3].[H+].[H+] [Gd-EOB-DTPA], the “appearance of normal liver region (clinical contrast agent)” value [1] is given as “in white” and the “signal change in liver tumor region (clinical contrast agent)” value [1] is given as “almost no change”.

In the case of [Cl][Mn][Cl] [MnCl2], the “MTD of MnCl2 relative to MTD of MnCaP” value [2] is reported as “about 1/7”, the “maximum tolerant dose (MTD)” value [2] is reported as “about 0.22 mmol/kg” and the “longitudinal relaxivity r1” value [3] is reported as 7.30 to 7.58 mM⁻¹ s⁻¹.
